The record followed here is ChEMBL document CHEMBL3244224, “Synthesis and central nervous system activity of 2-arylidene-4-aminoalkyl-2H-1,4-benzoxazin-3(4H)-ones and related compounds” (J Med Chem, 1977).

Experiment [1] is described as follows: (§1) Antagonist activity at dopamine receptor in Sprague-Dawley rat olfactory tubercles assessed as inhibition of adenylate cyclase activity after 5 mins. It is filed as tissue-based, Olfactory tubercle. To be noted: read-out: I50.
The nature of experiment [2]: (§2) Antagonist activity at dopamine receptor in Sprague-Dawley rat olfactory tubercles assessed as inhibition of dopamine-induced adenylate cyclase activity after 5 mins. Type of experiment: tissue-based, Olfactory tubercle. To be noted: read-out: I50.
The subject of experiment [3] is Rattus norvegicus. The experiment is described as follows: Central nervous system activity in ip dosed rat assessed as dose required to cause depression by measuring decreased motor activity. Type of experiment: functional.
The test system of experiment [4] is Rattus norvegicus. The experiment is described as follows: Central nervous system activity in ip dosed rat assessed as dose required to cause decreased reflex action by measuring decreased grip strength. It is filed as functional.
The species entered for experiment [5] is Rattus norvegicus. The experiment is described as §1. Type of experiment: tissue-based. To be noted: Olfactory tubercle.
The species named for experiment [6] is Rattus norvegicus. Described as §2. Particulars: Olfactory tubercle. It is filed as tissue-based.
Experiment [7] is filed under the species Rattus norvegicus. Description: Antagonist activity at dopamine receptor in Sprague-Dawley rat olfactory tubercles assessed as inhibition of dopamine-induced adenylate cyclase activity at 100 uM after 5 mins. To be noted: Olfactory tubercle. It is filed as tissue-based.
The species named for experiment [8] is Rattus norvegicus. Description: Antagonist activity at dopamine receptor in Sprague-Dawley rat olfactory tubercles assessed as inhibition of adenylate cyclase activity at 100 uM after 5 mins. It is filed as tissue-based. To be noted: Olfactory tubercle.
The species entered for experiment [9] is Rattus norvegicus. Description: Antagonist activity at dopamine receptor in Sprague-Dawley rat olfactory tubercles assessed as inhibition of adenylate cyclase activity at 10 uM after 5 mins. It is filed as tissue-based. To be noted: Olfactory tubercle.

Calls of active or inactive are those of the source. The rule behind the calls is not given here.

Turning to `CN1CCN(CCCN2C(=O)/C(=C/c3ccccc3)Oc3ccccc32)CC1.Cl`, the IC50 in experiment [1] turned out to be 450 µM; in experiment [2], 35 µM. The ED in experiment [3] came out at 50 mg/kg; in experiment [4], 12.5 mg/kg.

For the molecule `CN(C)CCCCN1C(=O)/C(=C/c2ccccc2)Oc2ccccc21.Cl`, the figures for the IC50 in experiment [1] and in experiment [2] were over 200 µM and 80 µM, respectively. For the same molecule, the ED in experiment [3] is over 200 mg/kg; in [4] it was 50 mg/kg.

Turning to `COc1ccc2c(c1)N(CCCN(C)C)C(=O)/C(=C/c1ccccc1)O2.Cl`, the IC50 in [1] is over 100 µM; in [2], 60 µM. Moreover, the ED in experiment [3] and in [4] was over 200 mg/kg each time.

With `Cl.O=C1/C(=C/c2ccccc2)Oc2ccccc2N1CCN1CCOCC1`, the I50 entry in experiment [5] and in experiment [6] was “inactive” each time. In addition, the ED in experiment [3] and in experiment [4] was over 200 mg/kg throughout. Moreover, the inhibition in [7] and in experiment [8] was under 10% each time.

On to `OCCN1CCN(CCCN2c3ccccc3Sc3ccc(C(F)(F)F)cc32)CC1` [FLUPHENAZINE], for which the I50 result in [5] is “inactive”. Further, the IC50 in experiment [2] was determined as 0.5 µM. Moreover, the inhibition in [9] was under 10%.

For `CN(C)CCN1C(=O)C(Cc2ccccc2)Oc2ccccc21.Cl` (stereo not given), the ED in [3] is over 200 mg/kg; in experiment [4], 200 mg/kg.

In the case of `CCCC(C)(COC(N)=O)COC(N)=O` [MEPROBAMATE], the ED in [3] turned out to be 50 mg/kg; in experiment [4] it was 25 mg/kg.

Regarding `CN(C)CCCN1C(=O)/C(=C/c2ccccc2)Oc2ccccc21.Cl`, the IC50 in experiment [1] came to 600 µM; in experiment [2], 33 µM. The ED in [3] and in experiment [4] was 25 mg/kg each time.

Consider `CN1CCN(CCCN2C(=O)C(Cc3ccccc3)Oc3ccccc32)CC1.Cl` (stereo not given), for which the values for the ED in experiment [3] and in experiment [4] were over 200 mg/kg and 50 mg/kg, respectively.

For `CN1CCN(CCCN2C(=O)/C(=C/c3ccccc3)Oc3ccc(Cl)cc32)CC1`, the IC50 in experiment [1] and in [2] was over 500 µM in each case. Also, the ED in experiment [3] and in [4] was over 200 mg/kg throughout.

`Cl.O=C1/C(=C/c2ccccc2)Oc2ccccc2N1CCCN1CCN(c2ccccc2)CC1`: the I50 result in experiment [5] and in [6] was “inactive” each time. Also, the ED in experiment [3] and in [4] was 100 mg/kg throughout. Besides, the inhibition in experiment [7] and in experiment [8] was under 10% in each case.

In the case of `CN(C)CCCN1C(=O)/C(=C/c2ccccc2)Oc2ccc(Cl)cc21.Cl`, the values for the IC50 in experiment [1] and in experiment [2] were over 100 µM and 100 µM, respectively. The figures for the ED in [3] and in experiment [4] were over 200 mg/kg and 200 mg/kg, respectively.

For the molecule `CN(C)CCCN1C(=O)C(Cc2ccccc2)Oc2ccc(Cl)cc21.Cl` (stereo not given), the ED in [3] was over 200 mg/kg; in [4], 100 mg/kg.

Turning to `CN(C)CCN1C(=O)/C(=C/c2ccccc2)Oc2ccccc21.Cl`, the IC50 was over 100 µM in experiment [1] and 100 µM in [2]. Also, the ED in [3] and in experiment [4] was 50 mg/kg throughout.

`CN(C)CCCN1C(=O)C(Cc2ccccc2)Oc2ccccc21.Cl` (stereo not given): the ED amounted to 100 mg/kg in experiment [3] and 50 mg/kg in experiment [4].

For the molecule `CN1CCN(C2=Nc3cc(Cl)ccc3Nc3ccccc32)CC1` [CLOZAPINE], the I50 entry in experiment [5] was “inactive”. Also, the IC50 in [2] worked out at 6 µM. In addition, the inhibition in experiment [8] is under 10%.

On to `CN(C)CCCN1C(=O)/C(=C/c2ccccc2Cl)Oc2ccccc21.Cl`, for which the IC50 came to 170 µM in experiment [1] and 30 µM in experiment [2]. The ED was over 200 mg/kg in experiment [3] and 100 mg/kg in experiment [4].

Turning to `O=C1Nc2ccccc2O/C1=C\c1ccccc1`, the I50 result in experiment [5] and in experiment [6] was “inactive” in each case. Moreover, the ED in experiment [3] and in experiment [4] was over 200 mg/kg each time. The inhibition in [7] and in [8] was under 10% each time.

Take `C[N+](C)(C)CCCN1C(=O)/C(=C/c2ccccc2)Oc2ccccc21.[Cl-]`: the IC50 was determined as 1000 µM in [1] and 650 µM in [2]. For the same molecule, the ED in [3] and in experiment [4] was 50 mg/kg each time.

Consider `Cl.O=C1/C(=C/c2ccccc2)Oc2ccccc2N1CCCN1CCN(CO)CC1`, for which the IC50 was over 400 µM in experiment [1] and 54 µM in experiment [2]. In addition, the ED in [3] and in experiment [4] was 100 mg/kg each time.

`CCN(CC)CCCN1C(=O)/C(=C/c2ccccc2)Oc2ccccc21.Cl`: the values for the IC50 in experiment [1] and in [2] were over 100 µM and 60 µM, respectively. In addition, the ED in [3] was found to be 50 mg/kg; in [4], 12.5 mg/kg.

For `Cc1ccc2c(c1)N(CCCN(C)C)C(=O)/C(=C/c1ccccc1)O2.O=C(O)CCC(=O)O`, the results for the IC50 in experiment [1] and in [2] were 450 µM and 15 µM, respectively. Besides, the ED in experiment [3] and in experiment [4] was 100 mg/kg each time.

For the molecule `CN(C)CCCN1C(=O)/C(=C/c2ccc(Cl)cc2)Oc2ccccc21.Cl`, the results for the IC50 in [1] and in experiment [2] were 450 µM and 30 µM, respectively. Further, the ED in experiment [3] and in [4] was 100 mg/kg throughout.

Turning to `CN(C)CCCN1C(=O)/C(=C/c2cccs2)Oc2ccccc21.Cl`, the figures for the IC50 in [1] and in [2] were over 200 µM and 56 µM, respectively. Besides, the ED in experiment [3] and in experiment [4] was 100 mg/kg throughout.
